Our source for the chromatographic logP and pest or weed control values is patent publication US20110183978A1, “Phenylpyri(mi)dinylazoles” (Bayer CropScience AG, priority 2009, published 2011).

The nature of data set [1]: physchem.
Data set [2] deals with Alternaria solani. The data set can be described thus: Example M: in vivo test on Alternaria solani (leaf blotch disease/tomato/protective). The conditions noted are these: 168 h, tomato, protective, 500 ppm active substance, assessed 7 days after inoculation, read-out: % Wirkungsgrad (activity level). The protocol:
Solvent: 49 parts by weight N,N-dimethylformamide Emulsifier: 1 part by weight alkylaryl polyglycol ethers For the preparation of a suitable active substance preparation, 1 part by weight of active substance is mixed with the stated quantities of solvent and emulsifier and the concentrate is diluted to the desired concentration with water. For the testing for protective activity, young tomato plants are sprayed with the active substance preparation at the stated application dosage. […] 7 days after the inoculation, the assessment takes place.

Setting [3] is: LogPA (logP of the stated pure compound or, in a mixture, of the main isomer, 1-substituted 3-aryl-1H-pyrazole).

In general, chromatographic logP refers to a lipophilicity value derived from retention on a column.

Consider `CC(C)=CCn1ncc(-c2ccncc2)c1-c1ccc(F)cc1` [Compound 25], for which the chromatographic logP in data set [1] (setting [3]) worked out at 2.68. For the same molecule, in data set [2], the pest or weed control at 500 ppm came to 90%.

With `Fc1ccc(-c2nn(Cc3ccccc3-c3ccccc3)cc2-c2ccncc2)cc1` [Compound 135], in data set [1] (setting [3]), the chromatographic logP came to 2.34. Also, in data set [2], the pest or weed control at 500 ppm came to 78%.

Consider `Cc1cc(C(=O)Cn2cc(-c3ccncc3)c(-c3ccc(F)cc3)n2)nn1C` [Compound 144], for which the chromatographic logP in data set [1] (setting [3]) amounted to 1.31. Also, the pest or weed control at 500 ppm in data set [2] was 94%.

Regarding `CCOC(=O)Cn1cc(-c2ccncc2)c(-c2ccc(F)cc2)n1` [Compound 170], the chromatographic logP in data set [1] (LogPA) is 1.31. Moreover, the pest or weed control at 500 ppm in data set [2] amounted to 78%.

In data set [1] (LogPA), `C#CCNc1nccc(-c2c[nH]nc2-c2ccc(F)cc2)n1` [Compound 173] returned a chromatographic logP of 1.44. In addition, in data set [2], the pest or weed control at 500 ppm is 94%. `CCNC(=O)Nc1cc(-c2cn(CC(F)F)nc2-c2ccc(F)cc2)ccn1` [Compound 231] came in with a chromatographic logP in data set [1] (LogPA) of 1.91. In addition, the pest or weed control at 500 ppm in data set [2] turned out to be 95%.

On to `O=C(Nc1cc(-c2cn(CC(F)F)nc2-c2ccc(F)cc2)ccn1)c1ccsc1` [Compound 235], for which, in data set [1] (LogPA), the chromatographic logP amounted to 2.69. Further, the pest or weed control at 500 ppm in data set [2] worked out at 94%. The like results for `COCC(=O)Nc1cc(-c2cn(C(C)c3ccccc3F)nc2-c2ccc(F)cc2)ccn1` (stereo not drawn) [Compound 244] were, in that order, 3.5 and 94%. On to `CCC(=O)Nc1cc(-c2cn(C(C)c3ccccc3F)nc2-c2ccc(F)cc2)ccn1` (stereo not drawn) [Compound 248], for which the chromatographic logP in data set [1] (LogPA) amounted to 3.03. The pest or weed control at 500 ppm in data set [2] worked out at 94%. `CC(c1ccccc1F)n1cc(-c2ccnc(NC(=O)C3CC3)c2)c(-c2ccc(F)cc2)n1` (stereo not drawn) [Compound 259]: in data set [1] (LogPA), the chromatographic logP is 3.13. The pest or weed control at 500 ppm in data set [2] worked out at 90%. In data set [1] (LogPA), `O=C(Nc1cc(-c2cn(OC3CCCC3)nc2-c2ccc(F)cc2)ccn1)C1CC1` [Compound 269] showed a chromatographic logP of 3.35. The pest or weed control at 500 ppm in data set [2] is 89%.

In turn, `CC(C)Cn1cc(-c2ccnc(NCC3CC3)n2)c(-c2ccc(F)cc2)n1` [Compound 273] came in with a chromatographic logP in data set [1] (LogPA) of 2.55. The pest or weed control at 500 ppm in data set [2] is 90%. For `Fc1ccc(-c2nn(CC3OCCO3)cc2-c2ccncc2)cc1` [Compound 275], in that order: 1.02 and 90%. `CC(C)n1cc(-c2ncnc3[nH]cnc23)c(-c2ccc(F)cc2)n1` [Compound 282] gave a chromatographic logP in data set [1] (LogPA) of 1.79. For the same molecule, in data set [2], the pest or weed control at 500 ppm was determined as 70%. For `CCC(=O)Nc1cc(-c2cn(Cc3cccc(C#N)c3)nc2-c2ccc(F)cc2)ccn1` [Compound 302], the chromatographic logP in data set [1] (LogPA) is 2.38. The pest or weed control at 500 ppm in data set [2] was found to be 95%. As to `CC(C1CC1)n1cc(-c2ccncc2)c(-c2ccc(F)cc2)n1` (stereo not drawn) [Compound 305], the chromatographic logP in data set [1] (LogPA) stood at 1.59. Besides, the pest or weed control at 500 ppm in data set [2] came out at 100%.

As for `CC(C)n1cc(-c2ncnc3[nH]ccc23)c(-c2ccc(F)cc2)n1` [Compound 310], in data set [1] (LogPA), the chromatographic logP was 1.61. Further, the pest or weed control at 500 ppm in data set [2] came out at 95%. Consider `CC(Nc1cc(-c2cn(CC3CC3)nc2-c2ccc(F)cc2)ccn1)C(F)(F)F` (stereo not drawn) [Compound 317], for which, in data set [1] (LogPA), the chromatographic logP was 2.33. Also, the pest or weed control at 500 ppm in data set [2] was 70%. `CC(C)n1cc(-c2ccnc(NC(C)C(F)(F)F)c2)c(-c2ccc(F)cc2)n1` (stereo not drawn) [Compound 318] displayed a chromatographic logP in data set [1] (LogPA) of 2.26. In addition, in data set [2], the pest or weed control at 500 ppm worked out at 80%. In data set [1] (LogPA), `CC(Nc1cc(-c2cn(C)nc2-c2ccc(F)cc2)ccn1)C(F)(F)F` (stereo not drawn) [Compound 319] displayed a chromatographic logP of 1.73. Besides, the pest or weed control at 500 ppm in data set [2] stood at 90%. For the molecule `COCC(=O)Nc1cc(-c2cn(C3CC3)nc2-c2ccc(F)cc2)ccn1` [Compound 321], the chromatographic logP in data set [1] (LogPA) was determined as 2.37. Also, the pest or weed control at 500 ppm in data set [2] was 70%. `CC(C)n1cc(-c2ccnc(S(C)(=O)=O)n2)c(-c2ccc(F)cc2)n1` [[XLI-1], 4-[3-(4-Fluorophenyl)-1-isopropyl-1H-pyrazol-4-yl]-2-(methylsulphonyl)pyrimidine] gave a chromatographic logP in data set [1] (pH 2.7, logP (pH 2.7)) of 2.9. For the molecule `O=C(Cc1ccnc(Cl)n1)c1ccc(F)cc1` [[XLIII-1], 2-(2-Chloropyrimidin-4-yl)-1-(4-fluorophenyl)ethanone], the chromatographic logP in data set [1] (pH 2.7, logP (pH 2.7)) is 2.27. For `CC(C)Nc1nccc(CC(=O)c2ccc(F)cc2)n1` [[XLIV-1], 1-(4-fluorophenyl)-2-[2-(isopropylamino)pyrimidin-4-yl]ethanone], the chromatographic logP in data set [1] (pH 2.7, logP (pH 2.7)) was found to be 2.05.

Consider `CC(C)Nc1nccc(C(=CN(C)C)C(=O)c2ccc(F)cc2)n1` [[XLV-1], 3-(Dimethylamino)-1-(4-fluorophenyl)-2-[2-(isopropylamino)pyrimidin-4-yl]prop-2-en-1-one], for which, in data set [1] (pH 2.7, logP (pH 2.7)), the chromatographic logP was determined as 1.45. For `CC(C)Nc1nccc(-c2c[nH]nc2-c2ccc(F)cc2)n1` [[XLVI-1], 4-[3-(4-fluorophenyl)-1H-pyrazol-4-yl]-N-isopropylpyrimidin-2-amine], in data set [1] (pH 2.7, logP (pH 2.7)), the chromatographic logP was 1.37.

As to `COCC(=O)Nc1cc(B2OC(C)(C)C(C)(C)O2)ccn1` [[XV-a-1], 2-Methoxy-N-[4-(4,4,5,5-tetramethyl-1,3,2-dioxaborolan-2-yl)pyridin-2-yl]acetamide], the chromatographic logP in data set [1] (pH 2.7, logP (pH 2.7)) was -0.18.

In data set [1] (pH 2.7, logP (pH 2.7)), `CC(C)C(=O)Nc1cc(B2OC(C)(C)C(C)(C)O2)ccn1` [[XV-a-4], 2-Methyl-N-[4-(4,4,5,5-tetramethyl-1,3,2-dioxaborolan-2-yl)pyridin-2-yl]propanamide] registered a chromatographic logP of 0.04.

In the case of `CC1(C)OB(c2ccnc(NC(=O)CC3CC3)c2)OC1(C)C` [[XV-a-5], 2-Cyclopropyl-N-[4-(4,4,5,5-tetramethyl-1,3,2-dioxaborolan-2-yl)pyridin-2-yl]acetamide], in data set [1] (pH 2.7, logP (pH 2.7)), the chromatographic logP was found to be 0.27.

For the molecule `CCOC(=O)Nc1cc(B2OC(C)(C)C(C)(C)O2)ccn1` [[XV-a-6], Ethyl [4-(4,4,5,5-tetramethyl-1,3,2-dioxaborolan-2-yl)pyridin-2-yl]carbamate], in data set [1] (pH 2.7, logP (pH 2.7)), the chromatographic logP stood at 0. For the molecule `CC1(C)OB(c2ccnc(NC(=O)C3CC3)c2)OC1(C)C` [[XV-a-7], N-[4-(4,4,5,5-Tetramethyl-1,3,2-dioxaborolan-2-yl)pyridin-2-yl]cyclopropanecarboxamide], the chromatographic logP in data set [1] (pH 2.7, logP (pH 2.7)) was 0.

Consider `O=C(Cc1ccncc1)c1c(F)cccc1F` [[XXV-1], 1-(2,6-Difluorophenyl)-2-(pyridin-4-yl)ethanone], for which, in data set [1] (pH 2.7, logP (pH 2.7)), the chromatographic logP was found to be 0.62. Same read-out and setting: as for `CN(C)C=C(C(=O)c1c(F)cccc1F)c1ccncc1` [[XXVI-1], 1-(2,6-Difluorophenyl)-3-(dimethylamino)-2-(pyridin-4-yl)prop-2-en-1-one], the figure is 0.6; as for `Fc1cccc(F)c1-c1n[nH]cc1-c1ccncc1` [[XXVII-1], 4-[3-(2,6-Difluorophenyl)-1H-pyrazol-4-yl]pyridine], 1.54; as for `Fc1ccc(-c2n[nH]c(Br)c2-c2ccncc2)cc1` [[XXVIII-1], 4-[5-Bromo-3-(4-fluorophenyl)-1H-pyrazol-4-yl]pyridine], 0.92. The molecule `CSc1nccc(-c2c[nH]nc2-c2ccc(F)cc2)n1` [[XXXIX-1], 4-[3-(4-Fluorophenyl)-1H-pyrazol-4-yl]-2-(methylsulphanyl)pyrimidine] returned a chromatographic logP in data set [1] (pH 2.7, logP (pH 2.7)) of 2.28.
